From ChEMBL document CHEMBL5579866, “TRPA1 Inhibition Effects by 3-Phenylcoumarin Derivatives” (2024) come the findings set out here.

The subject of test [1] is T47D. Description: Inhibition of human T47D spheroid 3D culture growth size at 10 to 100 uM incubated for 12 hrs by CellIQ live-cell analysis. As to conditions: dose 10-100 µM. Type of test: functional, cell-based.
The subject of test [2] is T47D. The experiment in a line: Downregulation of TRPA1 protein expression in human T47D cells after 48 hrs. It is filed as functional, cell-based.
In test [3] the target is Transient receptor potential cation channel subfamily A member 1 (Homo sapiens) (UniProt O75762). Description: Antagonist activity at AITC induced human TRPA1 expressed in HEK293 cells assessed as intracellular calcium level at 10 to 100 uM preincubated for 30 mins followed by AITC stimulation and measured for 30 sec by Fluo-3AM staining based assay. Type of test: cell-based. To be noted: filed as antagonist, dose 10-100 µM, time 1830.0 sec. For orientation: A change in cytosolic calcium serves as a functional read-out for many receptors and channels.

Test [4] has as its system T47D. Description: Inhibition of human T47D spheroid 3D culture growth size at 1 uM incubated for 120 hrs by CellIQ live-cell analysis. It is filed as functional.
Test [5] relates to T47D. Description: Inhibition of human T47D spheroid 3D culture growth size at 100 uM incubated for 5 days by CellIQ live-cell analysis. Type of test: functional. To be noted: 120 h, time 5 day.
Test [6] deals with T47D. The experiment in a line: Inhibition of human T47D spheroid 3D culture growth size at 10 uM incubated for 120 hrs by CellIQ live-cell analysis. It is filed as functional.
For test [7], the system named is T47D. The experiment in a line: Inhibition of human T47D spheroid 3D culture growth size at 10 uM incubated for 5 days by CellIQ live-cell analysis. It is filed as functional. To be noted: 120 h, time 5 day.
Test [8] deals with Transient receptor potential cation channel subfamily A member 1 (Homo sapiens) (UniProt O75762). Description: Agonist activity at human TRPA1. As to conditions: filed as agonist.

The source made the active and inactive calls. The calls are words filed in the database; no cut-off is given here.

What is called inhibition is the change of the read-out against control, counted positive when it falls.

Transient receptor potential cation channel subfamily A member 1 (Homo sapiens), sequence (O75762 whole entry): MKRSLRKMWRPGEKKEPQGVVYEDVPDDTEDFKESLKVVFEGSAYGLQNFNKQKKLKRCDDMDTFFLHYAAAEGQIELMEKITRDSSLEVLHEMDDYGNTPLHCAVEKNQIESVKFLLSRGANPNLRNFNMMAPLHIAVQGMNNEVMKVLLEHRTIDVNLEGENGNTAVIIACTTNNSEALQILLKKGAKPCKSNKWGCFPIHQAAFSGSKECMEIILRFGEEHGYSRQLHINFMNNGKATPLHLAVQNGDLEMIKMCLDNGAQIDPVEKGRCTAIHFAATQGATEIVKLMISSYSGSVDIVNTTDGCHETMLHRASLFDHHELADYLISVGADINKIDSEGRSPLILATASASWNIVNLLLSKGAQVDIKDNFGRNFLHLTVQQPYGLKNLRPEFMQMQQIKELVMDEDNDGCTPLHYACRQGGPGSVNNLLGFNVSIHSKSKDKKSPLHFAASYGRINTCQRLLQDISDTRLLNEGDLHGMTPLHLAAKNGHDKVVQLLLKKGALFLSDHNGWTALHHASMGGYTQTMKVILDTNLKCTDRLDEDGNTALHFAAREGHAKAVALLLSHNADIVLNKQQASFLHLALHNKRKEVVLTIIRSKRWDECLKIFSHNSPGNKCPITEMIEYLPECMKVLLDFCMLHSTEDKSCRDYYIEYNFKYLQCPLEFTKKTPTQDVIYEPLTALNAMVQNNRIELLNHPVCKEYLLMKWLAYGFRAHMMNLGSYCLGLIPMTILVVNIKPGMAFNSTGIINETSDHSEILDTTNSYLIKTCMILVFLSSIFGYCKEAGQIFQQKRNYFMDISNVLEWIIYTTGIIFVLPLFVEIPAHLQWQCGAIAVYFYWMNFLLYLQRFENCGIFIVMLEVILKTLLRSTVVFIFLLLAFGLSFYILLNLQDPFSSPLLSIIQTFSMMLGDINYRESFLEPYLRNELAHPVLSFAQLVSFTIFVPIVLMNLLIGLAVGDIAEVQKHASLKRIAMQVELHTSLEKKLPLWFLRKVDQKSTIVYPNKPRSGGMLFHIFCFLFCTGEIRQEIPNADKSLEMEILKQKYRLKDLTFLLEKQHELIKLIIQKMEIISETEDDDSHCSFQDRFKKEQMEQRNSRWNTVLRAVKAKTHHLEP

On to `CC(=O)Oc1ccc2cc(-c3cccc(Br)c3)c(=O)oc2c1`, for which, in the test with T47D [1], the inhibition result was “Active”. Also, in the test on T47D [2], the result was inactive. Also, the result in test [3] was Active. Further, in the test with T47D [4], the inhibition at 1 µM was 20%. 100 µM produced 18% inhibition with T47D [5]. The inhibition at 10 µM in the test with T47D [6] stood at 60%; in the test on T47D [7], 8%.

As to `O=c1oc2ccccc2cc1-c1cccc(O)c1`, the result (in the test with T47D [2]; in test [8]) was Active.

For `O=c1oc2cc(O)ccc2cc1-c1cccc(O)c1`, the outcome (with T47D [2]; in test [3]; in test [8]) was Active.

Regarding `CC(=O)Oc1ccc2cc(-c3ccccc3)c(=O)oc2c1`, the result in the test with T47D [2] was inactive. The result in test [3] was Active.

As for `Oc1ccc(/C=C/c2cc(O)cc(O)c2)cc1`, the result in the test with T47D [2] was Active.

In the case of `O=c1oc2ccccc2cc1-c1ccc(O)cc1`, in test [3], the result was Active.
